{"source": "patent US7064120B2", "about": "“Tricyclic pyridyl carboxamides and derivatives thereof tocolytic oxytocin receptor antagonists” (Wyeth, priority 2001, dated 2006)", "target": "T1, human vasopressin V1a receptor subtype (Homo sapiens, UniProt P37288)", "T1 construct": "host or cells: CHO cells, stably transfected (pZeoSV vector for the Thibonnier line)", "T1 sequence (P37288 whole entry)": "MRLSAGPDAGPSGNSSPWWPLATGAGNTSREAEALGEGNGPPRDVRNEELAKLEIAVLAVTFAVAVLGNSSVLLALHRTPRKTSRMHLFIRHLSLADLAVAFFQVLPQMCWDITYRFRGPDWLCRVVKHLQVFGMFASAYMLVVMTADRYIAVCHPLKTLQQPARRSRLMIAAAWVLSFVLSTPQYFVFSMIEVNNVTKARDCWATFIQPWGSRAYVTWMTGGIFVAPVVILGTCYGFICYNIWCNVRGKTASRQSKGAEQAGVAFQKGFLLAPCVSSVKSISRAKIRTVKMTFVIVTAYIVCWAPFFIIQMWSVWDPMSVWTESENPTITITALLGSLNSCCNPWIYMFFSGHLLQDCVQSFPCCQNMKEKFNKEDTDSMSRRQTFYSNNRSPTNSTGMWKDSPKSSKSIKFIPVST", "experiment": "Vasopressin binding in CHO cell membranes expressing human vasopressin V1a subtype receptors ([3H]Manning ligand radioligand binding)", "conditions": "for IC50: value in parentheses; for inhibition at 0.1 µM: 100 nM", "method_in_brief": "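Membranes from CHO cells expressing human V1a, 25–50 μg protein/well, incubated 60 min at room temperature with [3H]Manning ligand (20 μL of 8 nM stock) in 50 mM Tris-HCl pH 7.4 with BSA, MgCl2 and protease inhibitors. Filtration then scintillation counting; reported as % inhibition or IC50 (nM).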", "data": [{"smiles": "COc1ccccc1-c1ccc(C(=O)N2Cc3ccc(C(=O)N(C)Cc4cccnc4)n3Cc3ccccc32)cc1C", "note": "[Example 101, 10-[(2′-Methoxy-2-methyl-[1,1′-biphenyl]-4-yl)carbonyl]-N-methyl-N-(3-pyridinylmethyl)-10,11-dihydro-5H-pyrrolo[2,1-c][1,4]benzodiazepine-3-carboxamide]", "values": [{"measurement": "IC50", "result": 355, "unit": "nM"}]}, {"smiles": "COc1cccc(-c2ccc(C(=O)N3Cc4ccc(C(=O)N(C)Cc5cccnc5)n4Cc4ccccc43)cc2C)c1", "note": "[Example 102, 10-[(3′-Methoxy-2-methyl-[1,1′-biphenyl]4-yl)carbonyl]-N-methyl-N-(3-pyridinyImethyl)-10,11-dihydro-5H-pyrrolo[2,1-c][1,4]benzodiazepine-3-carboxamide]", "values": [{"measurement": "IC50", "result": 275, "unit": "nM"}]}, {"smiles": "COc1ccccc1-c1ccc(C(=O)N2Cc3ccc(C(=O)N(C)Cc4cccnc4)n3Cc3ccccc32)cc1OC", "note": "[Example 103, 10-[(2,2′-Dimethoxy-[1,1′-biphenyl]-4-yl)carbonyl]-N-methyl-N-(3-pyridinylmethyl)-10,11-dihydro-5H-pyrrolo[2,1-c][1,4]benzodiazepine-3-carboxamide]", "values": [{"measurement": "IC50", "result": 449, "unit": "nM"}]}, {"smiles": "COc1ccccc1-c1ccc(C(=O)N2Cc3ccc(C(=O)N(C)Cc4cccnc4)n3Cc3ccccc32)cc1", "note": "[Example 104, 10-[(2′-Methoxy-[1,1′-biphenyl]-4-yl)carbonyl]-N-methyl-N-(3-pyridinylmethyl)-10,11-dihydro-5H-pyrrolo[2,1-c][1,4]benzodiazepine-3-carboxamide]", "values": [{"measurement": "inhibition at 0.1 µM", "result": 32, "unit": "%"}]}, {"smiles": "Cc1ccccc1-c1ccc(C(=O)N2Cc3ccc(C(=O)N(C)Cc4cccnc4)n3Cc3ccccc32)cc1", "note": "[Example 105, N-Methyl-10-[(2′-methyl-[1,1′-biphenyl]-4-yl)carbonyl]-N-(3-pyridinylmethyl)-10,11-dihydro-5H-pyrrolo[2,1-c][1,4]benzodiazepine-3-carboxamide]", "values": [{"measurement": "inhibition at 0.1 µM", "result": 0, "unit": "%"}]}, {"smiles": "Cc1cc(C(=O)N2Cc3ccc(C(=O)N(C)Cc4cccnc4)n3Cc3ccccc32)ccc1-c1ccccc1C(F)(F)F", "note": "[Example 112, N-Methyl-10-{[2-methyl-2′-trifluoromethyl-[1,1′-biphenyl]-4-yl]carbonyl}-N-(3-pyridinylmethyl)-10,11-dihydro-5H-pyrrolo[2,1-c][1,4]benzodiazepine-3-carboxamide]", "values": [{"measurement": "IC50", "result": 1600, "unit": "nM"}]}, {"smiles": "COc1ccccc1-c1ccc(C(=O)N2Cc3ccc(C(=O)N4CCN(c5ccncc5)CC4)n3Cc3ccccc32)cc1C", "note": "[Example 113, {10-[(2′-Methoxy-2-methyl-[1,1′-biphenyl]-4-yl)carbonyl]-10,11-dihydro-5H-pyrrolo[2,1-c][1,4]benzodiazepin-3-yl}[4-(4-pyridinyl)-1-piperazinyl]methanone]", "values": [{"measurement": "IC50", "result": 365, "unit": "nM"}]}]}
